Experimental findings from ChEMBL document CHEMBL1158488, “Investigation of the relative cellular permeability of DNA-binding pyrrole-imidazole polyamides” (J Med Chem, 2009) are described below.

Series [1] concerns the target T1, Glucocorticoid receptor (Homo sapiens, UniProt P04150).
T1 sequence (P04150 whole entry): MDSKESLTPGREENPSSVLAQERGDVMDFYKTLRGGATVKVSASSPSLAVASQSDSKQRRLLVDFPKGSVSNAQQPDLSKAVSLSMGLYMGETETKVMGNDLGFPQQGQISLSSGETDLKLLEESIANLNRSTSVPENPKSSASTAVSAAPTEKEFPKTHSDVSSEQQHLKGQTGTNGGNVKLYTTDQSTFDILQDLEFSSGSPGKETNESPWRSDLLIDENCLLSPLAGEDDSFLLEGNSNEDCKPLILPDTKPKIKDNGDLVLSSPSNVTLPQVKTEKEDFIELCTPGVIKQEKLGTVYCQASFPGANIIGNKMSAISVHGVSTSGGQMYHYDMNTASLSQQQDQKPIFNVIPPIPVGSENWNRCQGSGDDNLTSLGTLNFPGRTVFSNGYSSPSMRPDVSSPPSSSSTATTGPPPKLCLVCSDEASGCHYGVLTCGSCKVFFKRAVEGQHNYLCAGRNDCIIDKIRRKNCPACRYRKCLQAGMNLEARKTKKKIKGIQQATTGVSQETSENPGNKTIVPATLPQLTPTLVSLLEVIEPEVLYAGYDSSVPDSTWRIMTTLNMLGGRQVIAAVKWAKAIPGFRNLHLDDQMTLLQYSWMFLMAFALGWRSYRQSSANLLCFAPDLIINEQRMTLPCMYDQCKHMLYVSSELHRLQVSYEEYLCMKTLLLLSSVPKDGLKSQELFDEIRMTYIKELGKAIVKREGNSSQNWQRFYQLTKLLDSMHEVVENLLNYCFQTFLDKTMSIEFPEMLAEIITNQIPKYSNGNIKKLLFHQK
Description: Displacement of fluormone from human recombinant glucocorticoid receptor ligand binding domain by fluorescence polarization assay

The test system of series [2] is glucocorticoid receptor. Kind of series: Cell permeability in human MCF7 cells assessed as glucocorticoid receptor-dependent induction of luciferase activity at 1 uM after 40 hrs by GAL4-responsive luciferase reporter gene assay relative to control. Particulars: MCF7 cells with GAL4-responsive luciferase reporter.
The next series relates to MCF7. Kind of series: Cell permeability in human MCF7 cells assessed as glucocorticoid receptor-dependent induction of luciferase activity after 40 hrs by GAL4-responsive luciferase reporter gene assay. As to conditions: MCF7, 40 h. Background: Reporter assays use an easily measured gene product as a stand-in for the process of interest.
Series [3] has as its system glucocorticoid receptor. Kind of series: Cell permeability in human HeLa cells assessed as glucocorticoid receptor-dependent induction of luciferase activity at 6 uM after 40 hrs by GAL4-responsive luciferase reporter gene assay relative to control. As to conditions: HeLa cells with GAL4-responsive luciferase reporter.
The next series has as its system HeLa. The experiment in a line: Cell permeability in human HeLa cells assessed as glucocorticoid receptor-dependent induction of luciferase activity after 40 hrs by GAL4-responsive luciferase reporter gene assay.
The test system of series [4] is glucocorticoid receptor. Kind of series: Cell permeability in human HeLa cells assessed as glucocorticoid receptor-dependent induction of luciferase activity at 0.6 uM after 40 hrs by GAL4-responsive luciferase reporter gene assay relative to control. As to conditions: HeLa cells with GAL4-responsive luciferase reporter.

A word on the IC50: it is the concentration that gives 50% inhibition. Read a low IC50 as higher potency. On to `C[C@H]1C[C@@H]2[C@H]3CCC4=CC(=O)C=C[C@@]4(C)[C@]3(F)[C@H](O)C[C@@]2(C)[C@]1(O)C(=O)NCCNC(=O)c1cc(NC(=O)c2cc(NC(=O)c3cc(NC(=O)c4cc(NC(=O)CCCNC(=O)c5cc(NC(=O)c6cc(NC(=O)c7cc(NC(=O)c8nccn8C)cn7C)cn6C)cn5C)cn4C)cn3C)cn2C)cn1C`, for which inhibition at Glucocorticoid receptor [1] was half-maximal at 840 nM (IC50). That is a sub-micromolar value.

On Glucocorticoid receptor [1], `C[C@H]1C[C@@H]2[C@H]3CCC4=CC(=O)C=C[C@@]4(C)[C@]3(F)[C@H](O)C[C@@]2(C)[C@]1(O)C(=O)CSCCNC(=S)NCCNC(=O)c1cc(NC(=O)c2cc(NC(=O)c3cc(NC(=O)c4nccn4C)cn3C)cn2C)cn1C` yielded an IC50 of 26 nM.

In the case of `C[C@@H]1C[C@H]2[C@@H]3CCC4=CC(=O)C=C[C@]4(C)[C@@]3(F)[C@@H](O)C[C@]2(C)[C@@]1(O)C(=O)CSCCNC(=S)NCCCN(C)CCCNC(=O)CCNC(=O)c1cc(NC(=O)c2cc(NC(=O)c3nccn3C)cn2C)cn1C`, on Glucocorticoid receptor [1], the IC50 came out at 12 nM.

For `C[C@H]1C[C@@H]2[C@H]3CCC4=CC(=O)C=C[C@@]4(C)[C@]3(F)[C@H](O)C[C@@]2(C)[C@]1(O)C(=O)CSCCNC(=S)NCCNC(=O)c1cc(NC(=O)c2cc(NC(=O)c3cc(NC(=O)c4cc(NC(=O)CCCNC(=O)c5cc(NC(=O)c6cc(NC(=O)c7nccn7C)cn6C)cn5C)cn4C)cn3C)cn2C)cn1C`, the IC50 against Glucocorticoid receptor [1] was 21 nM.

The term fold induction denotes the signal under treatment as a multiple of the control signal. Broadly, the EC50 is the concentration that produces a half-maximal response. Take `CC(=O)NCCC(=O)NCCCN(C)CCCNC(=S)NCCSCC(=O)[C@@]1(O)[C@H](C)C[C@H]2[C@@H]3CCC4=CC(=O)C=C[C@]4(C)[C@@]3(F)[C@@H](O)C[C@@]21C`: the fold induction at 40 h, 1 µM in the series on glucocorticoid receptor [2] turned out to be 1200. The EC50 in the series on MCF7 was determined as 250 nM. The compound further showed a 50% inhibitory concentration (IC50) against Glucocorticoid receptor [1] of 9.3 nM. Also, the fold induction at 40 h, 6 µM with glucocorticoid receptor [3] was found to be 600.

On Glucocorticoid receptor [1], `C[C@@H]1C[C@H]2[C@@H]3CCC4=CC(=O)C=C[C@]4(C)[C@@]3(F)[C@@H](O)C[C@]2(C)[C@@]1(O)C(=O)CSCCNC(=S)NCCCN(C)CCCNC(=O)CCNC(=O)c1cc(NC(=O)c2cc(NC(=O)c3cc(NC(=O)c4cc(NC(=O)c5nccn5C)cn4C)cn3C)cn2C)cn1C` came in with a concentration for half-maximal inhibition (IC50) of 16 nM.

At Glucocorticoid receptor [1], `C[C@H]1C[C@@H]2[C@H]3CCC4=CC(=O)C=C[C@@]4(C)[C@]3(F)[C@H](O)C[C@@]2(C)[C@]1(O)C(=O)CSCCNC(=S)NCCNC(=O)c1cc(NC(=O)c2cc(NC(=O)c3cc(NC(=O)c4cc(NC(=O)c5nccn5C)cn4C)cn3C)cn2C)cn1C` displayed a concentration for half-maximal inhibition (IC50) of 34 nM.

As for `C[C@@H]1C[C@H]2[C@@H]3CCC4=CC(=O)C=C[C@]4(C)[C@@]3(F)[C@@H](O)C[C@]2(C)[C@@]1(O)C(=O)CSCCNC(=S)NCCCN(C)CCCNC(=O)CCNC(=O)c1cc(NC(=O)c2cc(NC(=O)c3cc(NC(=O)c4cc(NC(=O)CCCNC(=O)c5cc(NC(=O)c6nccn6C)cn5C)cn4C)cn3C)cn2C)cn1C`, at Glucocorticoid receptor [1], the IC50 was determined as 22 nM. Against the preceding compound, the IC50 is about 1.5-fold lower.

On to `C[C@H]1C[C@@H]2[C@H]3CCC4=CC(=O)C=C[C@@]4(C)[C@]3(F)[C@H](O)C[C@@]2(C)[C@]1(O)C(=O)CSCCNC(=S)NCCNC(=O)c1cc(NC(=O)c2cc(NC(=O)c3nccn3C)cn2C)cn1C`, for which half-maximal inhibition against Glucocorticoid receptor [1] (IC50) was put at 14 nM. Moreover, in the series on HeLa, the concentration giving a half-maximal response (EC50) is 1200 nM. Further, in the series on glucocorticoid receptor [3], the fold induction at 40 h, 6 µM turned out to be 3400.

For the compound `CC(=O)NCCNC(=S)NCCSCC(=O)[C@@]1(O)[C@H](C)C[C@H]2[C@@H]3CCC4=CC(=O)C=C[C@]4(C)[C@@]3(F)[C@@H](O)C[C@@]21C`, in the series on glucocorticoid receptor [4], the fold induction at 40 h, 0.6 µM was 3600. At Glucocorticoid receptor [1], this compound came in with an IC50 of 9.8 nM. For the same compound, the EC50 with HeLa was determined as 290 nM.

Compound `C[C@@H]1C[C@H]2[C@@H]3CCC4=CC(=O)C=C[C@]4(C)[C@@]3(F)[C@@H](O)C[C@]2(C)[C@@]1(O)C(=O)CSCCNC(=S)NCCCN(C)CCCNC(=O)CCNC(=O)c1cc(NC(=O)c2cc(NC(=O)c3cc(NC(=O)c4cc(NC(=O)CCCNC(=O)c5nccn5C)cn4C)cn3C)cn2C)cn1C` showed an IC50 at Glucocorticoid receptor [1] of 16 nM.

On to `C[C@@H]1C[C@H]2[C@@H]3CCC4=CC(=O)C=C[C@]4(C)[C@@]3(F)[C@@H](O)C[C@]2(C)[C@@]1(O)C(=O)CSCCNC(=S)NCCCN(C)CCCNC(=O)CCNC(=O)c1cc(NC(=O)c2cc(NC(=O)c3cc(NC(=O)c4nccn4C)cn3C)cn2C)cn1C`, for which the half-inhibitory concentration (IC50) against Glucocorticoid receptor [1] is 20 nM.

At Glucocorticoid receptor [1], `C[C@H]1C[C@@H]2[C@H]3CCC4=CC(=O)C=C[C@@]4(C)[C@]3(F)[C@H](O)C[C@@]2(C)[C@]1(O)C(=O)CSCCNC(=S)NCCNC(=O)c1cc(NC(=O)c2cc(NC(=O)c3cc(NC(=O)c4cc(NC(=O)CCCNC(=O)c5cc(NC(=O)c6cc(NC(=O)c7cc(NC(=O)c8nccn8C)cn7C)cn6C)cn5C)cn4C)cn3C)cn2C)cn1C` had a half-maximal inhibitory concentration (IC50) of 27 nM. For the same compound, in the series on glucocorticoid receptor [3], the fold induction at 40 h, 6 µM was 1500.

Turning to `C[C@H]1C[C@@H]2[C@H]3CCC4=CC(=O)C=C[C@@]4(C)[C@]3(F)[C@H](O)C[C@@]2(C)[C@]1(O)C(=O)CSCCNC(=S)NCCNC(=O)c1cc(NC(=O)c2cc(NC(=O)c3cc(NC(=O)c4cc(NC(=O)CCCNC(=O)c5cc(NC(=O)c6nccn6C)cn5C)cn4C)cn3C)cn2C)cn1C`, the half-inhibitory concentration (IC50) at Glucocorticoid receptor [1] amounted to 21 nM. This counts as double-digit nanomolar.

The Kd is the concentration at which binding is half-saturated. With `C[C@@H]1C[C@H]2[C@@H]3CCC4=CC(=O)C=C[C@]4(C)[C@@]3(F)[C@@H](O)C[C@]2(C)[C@@]1(O)C(=O)CSCCNC(=S)NCCCN(C)CCCNC(=O)CCNC(=O)c1cc(NC(=O)c2cc(NC(=O)c3cc(NC(=O)c4cc(NC(=O)CCCNC(=O)c5cc(NC(=O)c6cc(NC(=O)c7cc(NC(=O)c8nccn8C)cn7C)cn6C)cn5C)cn4C)cn3C)cn2C)cn1C`, the Kd at Nucleic Acid worked out at 5 nM.

`C[C@@H]1C[C@H]2[C@@H]3CCC4=CC(=O)C=C[C@]4(C)[C@@]3(F)[C@@H](O)C[C@]2(C)[C@@]1(O)C(=O)CSCCNC(=S)NCCCN(C)CCCNC(=O)CCNC(=O)c1cc(NC(=O)c2cc(NC(=O)c3cc(NC(=O)c4cc(NC(=O)CCCNC(=O)c5cc(NC(=O)c6cc(NC(=O)c7nccn7C)cn6C)cn5C)cn4C)cn3C)cn2C)cn1C`: the half-maximal inhibitory concentration (IC50) at Glucocorticoid receptor [1] was found to be 20 nM.

On Glucocorticoid receptor [1], `C[C@H]1C[C@@H]2[C@H]3CCC4=CC(=O)C=C[C@@]4(C)[C@]3(F)[C@H](O)C[C@@]2(C)[C@]1(O)C(=O)CSCCNC(=S)NCCNC(=O)c1cc(NC(=O)c2cc(NC(=O)c3cc(NC(=O)c4cc(NC(=O)CCCNC(=O)c5nccn5C)cn4C)cn3C)cn2C)cn1C` returned an IC50 of 23 nM.

As to `C[C@@H]1C[C@H]2[C@@H]3CCC4=CC(=O)C=C[C@]4(C)[C@@]3(F)[C@@H](O)C[C@]2(C)[C@@]1(O)C(N)=O` [OXDEX], in the series with HeLa, the half-maximal effective concentration (EC50) was 35000 nM.

At Glucocorticoid receptor [1], `C[C@@H]1C[C@H]2[C@@H]3CCC4=CC(=O)C=C[C@]4(C)[C@@]3(F)[C@@H](O)C[C@]2(C)[C@@]1(O)C(=O)CSCCNC(=S)NCCCN(C)CCCNC(=O)CCNC(=O)c1cc(NC(=O)c2nccn2C)cn1C` had an IC50 of 8.5 nM.

`C[C@H]1C[C@@H]2[C@H]3CCC4=CC(=O)C=C[C@@]4(C)[C@]3(F)[C@H](O)C[C@@]2(C)[C@]1(O)C(=O)NCCNC(=O)c1cc(NC(=O)c2cc(NC(=O)c3cc(NC(=O)c4nccn4C)cn3C)cn2C)cn1C` had a concentration for half-maximal inhibition (IC50) on Glucocorticoid receptor [1] of 550 nM. Compared with the last compound, the IC50 is about 65-fold higher.

At Glucocorticoid receptor [1], `C[C@H]1C[C@@H]2[C@H]3CCC4=CC(=O)C=C[C@@]4(C)[C@]3(F)[C@H](O)C[C@@]2(C)[C@]1(O)C(=O)NCCNC(=O)c1cc(NC(=O)c2nccn2C)cn1C` showed a half-maximal inhibitory concentration (IC50) of 460 nM. Moreover, the concentration for a half-maximal effect (EC50) with HeLa was determined as 4200 nM.

Regarding `C[C@H]1C[C@@H]2[C@H]3CCC4=CC(=O)C=C[C@@]4(C)[C@]3(F)[C@H](O)C[C@@]2(C)[C@]1(O)C(=O)CSCCNC(=S)NCCNC(=O)c1cc(NC(=O)c2cncn2C)cn1C`, at Glucocorticoid receptor [1], inhibition was half-maximal at 5.7 nM (IC50). The EC50 in the series on HeLa came to 750 nM.
